Test results published in patent US20110097324A1, “COMPOSITIONS AND METHODS FOR MODULATING NICOTINIC/NMDA RECEPTOR FUNCTION” (CENTRE FOR ADDICTION AND MENTAL HEALTH, priority 2008, published 2011).

What was measured:
[1] = system: cultured hippocampal neurons; format: cell-based, rat; conditions: for mEPSC amplitude 30 min after treatment: glycine 200 μM 3 min, choline 1 mM, AP5 100 μM
Method: Primary cultures from hippocampus were prepared from fetal Wistar rats (embryonic day 17-19) on Cell+ (Sarstedt) culture dishes as previously described in (10). The cultures were used for experiments on 12-15 d after plating.
Miniature excitatory postsynaptic currents (mEPSCs) were recorded from cultured hippocampal neurons 2 to 4 weeks days after plating under whole-cell patch clamp configuration (11). Electrodes (3-5 MΩ) were pulled from high lead pipettes (Corning 8161, Warner Instruments). Cells were voltage clamped at −70 mV. Access resistance is below 10 MΩ, recordings with access resistance varying more than 10% were rejected from analysis.
To determine whether activation of α7-nAchR is physiologically relevant in regulating synaptic strength, we examined the ability of α7-nAchR activation to modulate miniature excitatory postsynaptic currents (mEPSCs) during LTP in primary cultures of hippocampal neurons. mEPSCs in hippocampal neurons were recorded under whole-cell configuration. […] The cells were held at −70 mV to avoid potential interference by voltage-gated Ca^++ channels (12,13).

NMDA receptor = format: cell-based, rat
[2] = molecular target: α7-nAchR-NR2A interaction (Rattus norvegicus, UniProt Q00959+Q05941); format: cell-based
Chain of α7-nAchR-NR2A interaction (Q05941 23-502, other chains not shown): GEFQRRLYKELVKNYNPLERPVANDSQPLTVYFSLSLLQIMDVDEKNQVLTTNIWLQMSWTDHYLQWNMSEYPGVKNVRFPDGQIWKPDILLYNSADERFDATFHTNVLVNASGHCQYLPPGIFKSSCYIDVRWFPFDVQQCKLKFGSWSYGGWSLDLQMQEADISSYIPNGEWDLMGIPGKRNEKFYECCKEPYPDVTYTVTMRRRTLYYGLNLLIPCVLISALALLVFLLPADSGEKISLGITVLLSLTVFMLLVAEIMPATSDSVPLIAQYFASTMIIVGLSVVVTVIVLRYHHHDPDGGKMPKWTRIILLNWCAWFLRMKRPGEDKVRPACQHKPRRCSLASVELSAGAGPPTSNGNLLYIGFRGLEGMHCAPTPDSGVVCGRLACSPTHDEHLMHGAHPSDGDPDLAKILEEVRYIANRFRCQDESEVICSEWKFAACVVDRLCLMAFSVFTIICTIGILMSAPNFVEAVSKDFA
Chain of α7-nAchR-NR2A interaction (Q00959 20-1464, other chains not shown): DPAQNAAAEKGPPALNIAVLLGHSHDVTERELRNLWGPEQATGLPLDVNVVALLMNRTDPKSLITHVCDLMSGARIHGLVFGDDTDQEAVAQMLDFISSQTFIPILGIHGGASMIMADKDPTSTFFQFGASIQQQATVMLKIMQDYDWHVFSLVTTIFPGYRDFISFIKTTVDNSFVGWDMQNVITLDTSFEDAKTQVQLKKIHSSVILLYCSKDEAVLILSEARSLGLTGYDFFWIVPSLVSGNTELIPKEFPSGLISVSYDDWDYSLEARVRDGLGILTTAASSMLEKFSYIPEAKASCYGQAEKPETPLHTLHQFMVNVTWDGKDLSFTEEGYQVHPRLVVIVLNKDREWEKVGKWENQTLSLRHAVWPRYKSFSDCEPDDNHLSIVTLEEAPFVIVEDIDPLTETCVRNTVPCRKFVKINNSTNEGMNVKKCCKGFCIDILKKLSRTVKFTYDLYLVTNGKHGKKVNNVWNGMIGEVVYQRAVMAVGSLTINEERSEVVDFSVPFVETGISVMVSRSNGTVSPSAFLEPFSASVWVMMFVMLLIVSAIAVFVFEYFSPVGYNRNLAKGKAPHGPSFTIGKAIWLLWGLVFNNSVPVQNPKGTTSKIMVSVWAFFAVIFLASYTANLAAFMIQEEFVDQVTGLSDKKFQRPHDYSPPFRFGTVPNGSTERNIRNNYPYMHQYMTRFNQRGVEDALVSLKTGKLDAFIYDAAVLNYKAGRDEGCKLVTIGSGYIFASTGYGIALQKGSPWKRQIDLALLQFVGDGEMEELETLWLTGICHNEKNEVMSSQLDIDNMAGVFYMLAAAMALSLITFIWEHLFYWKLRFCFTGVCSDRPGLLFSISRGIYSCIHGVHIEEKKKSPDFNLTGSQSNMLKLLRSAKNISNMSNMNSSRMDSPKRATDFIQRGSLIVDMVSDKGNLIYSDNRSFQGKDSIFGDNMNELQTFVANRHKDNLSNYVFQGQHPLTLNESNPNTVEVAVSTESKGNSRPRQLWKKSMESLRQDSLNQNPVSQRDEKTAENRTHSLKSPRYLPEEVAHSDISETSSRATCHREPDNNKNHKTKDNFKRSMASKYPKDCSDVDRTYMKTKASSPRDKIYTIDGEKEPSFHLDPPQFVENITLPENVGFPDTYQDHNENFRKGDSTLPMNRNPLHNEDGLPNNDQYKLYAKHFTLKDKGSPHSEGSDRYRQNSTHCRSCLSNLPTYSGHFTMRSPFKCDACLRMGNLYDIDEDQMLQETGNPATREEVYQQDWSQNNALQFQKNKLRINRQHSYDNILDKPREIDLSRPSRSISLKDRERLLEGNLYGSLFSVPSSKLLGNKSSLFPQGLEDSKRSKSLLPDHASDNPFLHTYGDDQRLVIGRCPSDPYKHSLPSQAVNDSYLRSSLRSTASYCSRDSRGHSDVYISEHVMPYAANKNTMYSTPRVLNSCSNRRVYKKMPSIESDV
Method: To examine the effect of α7-nAchR activation on the interaction between α7-nAchR and NMDA receptors, we examined the ability of antibody against NR2A subunit to co-precipitate with the α7-nAchR in hippocampal primary culture treated with 1 mM choline or choline/NMDA (50 μM).

α7 nAChR: NR2A complex = conditions: in vivo, 6 mg/kg/day
Method: Thus, we pretreated rats with either nicotine or saline for 7 days subdermally (osmotic mini-pump, 6 mg/kg/day), and the expression of NR2A and α7 nAChR was examined in Western blot analysis.

CREB = format: cell-based, rat
Source text: To confirm that α7 nAChR is responsible for the observed activation of CREB, we measured CREB activity in HEK-293 cells expressing α7 nAChR.

NC(CCCP(=O)(O)O)C(=O)O (stereo not drawn) [AP5]
effect on amplitude of mEPSCs [1]: can be abolished

C[C@]12N[C@H](Cc3ccccc31)c1ccccc12 [MK-801]
block of enhancement of whole cell current induced by co-application of choline with NMDA (NMDA receptor): can be blocked

CN[C@H](CC(=O)O)C(=O)O [NMDA, N-methyl-D-aspartate]
α7-nAchR-NR2A interaction after treatment [2]: no significant effect

α-bungarotoxin
block of enhancement of whole cell current induced by co-application of choline with NMDA (NMDA receptor): can abolish the choline induced upregulation of NMDA-mediated current

NCC(=O)O [glycine]
mEPSC amplitude 30 min after treatment [1]: 26.5+/−2.3 pA

CN1CCCC1c1cccnc1 (stereo not drawn) [nicotine]
expression of NR2A or α7 nAChR in rat hippocampus (α7 nAChR: NR2A complex): no significant difference | α7 nAChR: NR2A complex formation in rat hippocampus (α7 nAChR: NR2A complex): significantly enhanced

CCN1C[C@]2(COC(=O)c3ccccc3N3C(=O)C[C@H](C)C3=O)CC[C@H](OC)[C@@]34[C@@H]5C[C@H]6[C@H](OC)[C@@H]5[C@](O)(C[C@@H]6OC)[C@](O)([C@@H](OC)[C@H]23)[C@@H]14 [MLA]
block of nicotine-enhanced CREB activity (CREB): can be blocked

C[N+](C)(C)CCO [choline]
mEPSC amplitude 30 min after treatment [1]: 31.4+/−2.7 pA
